Like-named read-outs stand apart in the source and are kept apart here.
Tests used:
[1] = system: HCT-116 human colon carcinoma cells; assay: In vitro cytotoxicity, XTT assay, HCT-116 human colon carcinoma cells; assay type: cell-based; settings: read-out: IC50 HCT-116
[2] = system: HCT-116/VM46 human colon carcinoma cells; assay: In vitro cytotoxicity, XTT assay, HCT-116/VM46 cells (teniposide-resistant, multidrug resistance phenotype); assay type: cell-based; settings: for fold resistance relative to HCT116 cells: 4320 min; for IC50: Homo sapiens, read-out: IC50 HCT-116/VM46
[3] = background statement; cited from earlier work
[4] = HCT-116/VM46 relative to HCT116, value in parenthesis
[5] = HCT-116/VM46, teniposide-resistant, multidrug resistance phenotype, XTT, 72 hours, 37° C.

Q: For `C=C1C2=CC(=O)[C@]3(C)[C@@H](OC(=O)C(F)Cl)C[C@H]4OC[C@@]4(OC(C)=O)[C@H]3[C@H](OC(=O)c3ccccc3)[C@](O)(C[C@@H]1OC(=O)[C@H](O)[C@@H](NC(=O)c1ccccc1)c1ccccc1)C2(C)C` (some centres unmarked) [Example 3, 7-O-chlorofluoroacetyl-10-desacetoxy-11,12-dihydrotaxol-10,12(18)-diene], which IC50 ([1]; HCT-116, 72 h) is on record?
A: Its IC50 is 38 nM.

Q: Which IC50 ([1]; HCT-116, 72 h) does the source give for `CC(=O)O[C@@]12CO[C@@H]1C[C@H](OC(=O)C(F)Cl)[C@@]1(C)C(=O)CC3=C(C)[C@@H](OC(=O)[C@H](O)[C@@H](NC(=O)c4ccccc4)c4ccccc4)C[C@@](O)([C@@H](OC(=O)c4ccccc4)[C@H]21)C3(C)C` (some centres unmarked) [Example 4, 7-O-chlorofluoroacetyl-10-desacetoxytaxol] here?
A: The IC50 was 8 nM.

Q: Which IC50 ([1]; HCT-116, 72 h) does the source give for `C=C1C2=CC(=O)[C@@]3(C)[C@H]([C@H](OC(=O)c4ccccc4)[C@](O)(C[C@@H]1OC(=O)[C@H](O)[C@@H](NC(=O)c1ccccc1)c1ccccc1)C2(C)C)[C@]1(OC(C)=O)CO[C@@H]1C[C@@H]3O` [Example 9, 10-Desacetoxy-11,12-dihydrotaxol-10,12(18)-diene] here?
A: Its IC50 is 38 nM.

Q: Which “fold resistance relative to HCT116 cells” value [2, 4] does the source give for `CC(=O)O[C@@]12CO[C@@H]1C[C@H](O)[C@@]1(C)C(=O)CC3=C(C)[C@@H](OC(=O)[C@H](O)[C@@H](NC(=O)c4ccccc4)c4ccccc4)C[C@@](O)([C@@H](OC(=O)c4ccccc4)[C@H]21)C3(C)C` [Example 10, 10-Desacetoxytaxol] here?
A: Its value is 153 fold.

Q: And the IC50 [2, 5]?
A: The IC50 was 1220 nM.

Q: And the IC50 ([1]; HCT-116, XTT, 72 hours, 37° C.)?
A: The IC50 was 8 nM.

Q: With `CC(=O)O[C@@]12CO[C@@H]1C[C@@H](O)[C@@]1(C)C(=O)CC3=C(C)[C@@H](OC(=O)[C@H](O)[C@@H](NC(=O)c4ccccc4)c4ccccc4)C[C@@](O)([C@@H](OC(=O)c4ccccc4)[C@H]21)C3(C)C` [Example 13, 7-Epi-10-desacetoxytaxol] as the compound, how does the “fold resistance relative to HCT116 cells” value [2, 4] read?
A: Its value is < 32 fold.

Q: And the IC50 [2, 5]?
A: Its IC50 is 3090 nM.

Q: And the IC50 ([1]; HCT-116, XTT, 72 hours, 37° C.)?
A: The IC50 was > 98 nM.

Q: With `C=C1C2=CC(=O)[C@]3(C)[C@H](O)C[C@H]4OC[C@@]4(OC(C)=O)[C@H]3[C@H](OC(=O)c3ccccc3)[C@](O)(C[C@@H]1OC(=O)[C@H](O)[C@@H](NC(=O)c1ccccc1)c1ccccc1)C2(C)C` [Example 16, 10-Desacetoxy-11,12-dihydro-7-epitaxol-10,12(18)-diene] as the compound, how does the IC50 ([1]; HCT-116, 72 h) read?
A: The IC50 was 40 nM.

Q: For `CC(=O)O[C@H]1C(=O)[C@@]2(C)[C@H]([C@H](OC(=O)c3ccccc3)[C@]3(O)C[C@H](OC(=O)[C@H](O)[C@@H](NC(=O)c4ccccc4)c4ccccc4)C(C)=C1C3(C)C)[C@]1(OC(C)=O)CO[C@@H]1C[C@@H]2O` [Taxol], which IC50 ([2]; HCT-116/VM46, 72 h) is on record?
A: The IC50 was 440 nM.

Q: And the “fold resistance relative to HCT116 cells” value ([2]; human, hct-116/vm46 cells)?
A: The value was 124 fold.

Q: And the IC50 ([1]; HCT-116, 72 h)?
A: The IC50 was 4 nM.

Q: What about the “antitumor activity in in vivo animal models” value [3] of the same compound?
A: The value was “excellent antitumor activity”.
